Counter-ions that a name gives are not always drawn. Like-named read-outs stand apart in the source and are kept apart here.
What was measured:
canine TRPM8 = target: T1, canine TRPM8 (Canis lupus familiaris, UniProt Q1A7N1); test: In vitro canine TRPM8 functional assay (icilin-induced intracellular Ca2+ increase, FLIPR/FDSS); type: cell-based; conditions: for inhibition at 0.2 µM / % Inh @ 0.2 μM: 0.2 μM compound, HEK293 canine TRPM8; for % Inh @ 1 μM: 1 μM compound, samples diluted from 10 mM stock with 100% DMSO
T1 construct: expressed in transfected cells
T1 sequence (Q1A7N1 1-1104): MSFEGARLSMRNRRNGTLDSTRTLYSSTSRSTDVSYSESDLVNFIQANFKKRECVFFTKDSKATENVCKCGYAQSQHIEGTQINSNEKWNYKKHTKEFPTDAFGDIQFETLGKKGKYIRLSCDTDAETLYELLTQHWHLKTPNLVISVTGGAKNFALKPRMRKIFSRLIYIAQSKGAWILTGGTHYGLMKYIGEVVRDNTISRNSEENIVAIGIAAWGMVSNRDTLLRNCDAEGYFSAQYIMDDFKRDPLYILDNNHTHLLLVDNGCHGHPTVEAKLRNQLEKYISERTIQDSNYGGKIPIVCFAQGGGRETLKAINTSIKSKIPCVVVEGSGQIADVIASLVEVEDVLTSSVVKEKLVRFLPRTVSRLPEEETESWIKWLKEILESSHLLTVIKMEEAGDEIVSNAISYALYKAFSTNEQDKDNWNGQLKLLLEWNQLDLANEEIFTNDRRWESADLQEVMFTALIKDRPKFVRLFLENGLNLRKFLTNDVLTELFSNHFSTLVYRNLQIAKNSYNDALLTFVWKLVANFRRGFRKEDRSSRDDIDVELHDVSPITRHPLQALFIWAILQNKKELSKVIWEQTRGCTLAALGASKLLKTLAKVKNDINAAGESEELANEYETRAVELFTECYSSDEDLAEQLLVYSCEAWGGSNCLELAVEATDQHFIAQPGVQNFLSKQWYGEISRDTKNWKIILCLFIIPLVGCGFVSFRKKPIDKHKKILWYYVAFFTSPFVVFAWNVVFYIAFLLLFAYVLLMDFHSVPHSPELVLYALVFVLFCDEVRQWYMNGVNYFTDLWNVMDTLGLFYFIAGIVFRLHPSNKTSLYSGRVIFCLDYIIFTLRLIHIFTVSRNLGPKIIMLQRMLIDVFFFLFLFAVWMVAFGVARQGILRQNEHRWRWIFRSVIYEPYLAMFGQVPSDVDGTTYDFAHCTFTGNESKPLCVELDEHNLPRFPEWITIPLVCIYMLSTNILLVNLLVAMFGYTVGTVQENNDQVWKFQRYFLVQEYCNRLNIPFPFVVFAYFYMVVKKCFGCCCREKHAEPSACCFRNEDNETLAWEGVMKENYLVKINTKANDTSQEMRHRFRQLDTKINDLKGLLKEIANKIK
Protocol: The functional activity of representative compounds of the formula (I) of the present invention was quantified by measuring changes in intracellular calcium concentration using a Ca^2+-sensitive fluorescent dye. The changes in fluorescent signal were monitored by a fluorescence plate reader, either a FLIPR™ (Molecular Devices) or FDSS (Hamamatsu).
HEK293 cells stably expressing canine TRPM8 were routinely grown as monolayers in Dulbecco's minimum essential medium supplemented with 10% FBS, 2 mM L-glutamine, 100 units/mL penicillin, 100 ug/mL streptomycin and 400 μg/mL G418. Cells were maintained in 5% CO2 at 37° C. At 24 hr prior to assay, cells were seeded in black wall, clear-base poly-D-lysine coated 384-well plates (BD Biosciences, N.J., USA) at a density of 5,000 cells per well in culture medium and grown overnight in 5% CO2 at 37° C. On assay day, growth media was removed, and cells were loaded with Calcium 3 Dye (Molecular Devices) for 35 min at 37° C., under 5% CO2 and then incubated for 25 min at room temperature and atmosphere. Subsequently, cells were tested for agonist-induced increases in intracellular Ca^2+ levels using FLIPR™ or FDSS. Cells were treated with compounds of the formula (I) at varying concentrations and intracellular Ca^2+ was measured for 5 min prior to the addition of icilin to all wells to achieve a final concentration that produces approximately an 80% maximal response.
Basal FI was subtracted prior to normalizing data to percent of maximal response. Curves were generated using the average of quadruplicate wells for each data point using nonlinear regression of either sigmoidal dose response or sigmoidal dose response (variable slope). Finally, the EC50 and IC50 values were calculated with the best-fit curve determined by GraphPad Prism
Test samples were prepared by diluting a 10 mM stock solution of test compound with 100% DMSO prior to addition to assay buffer.

Male Sprague Dawley rats = test: Inhibition of icilin-induced "wet-dog" shakes in rats; type: in vivo; conditions: rat; 10 mg/kg p.o.; 60 min pre-icilin; vehicle 0.5% HPMC
Protocol: Male Sprague Dawley rats ([…], Charles River Labs, n=6-9/treatment) were used to evaluate the ability of test compounds to block icilin-induced “wet-dog” shakes (WDS). The test compound was administered at 10 mg/kg in an appropriate vehicle, such as hydroxypropyl-β-cyclodextrin (HP-β-CD), methocellulose, 10% Solutol, H2O or the like, by the appropriate route (e.g., i.p or p.o), 30-60 min before icilin. Icilin was then administered in PEG-400 or 10% solutol/H2O, at 1.0 or 3.0 mg/kg, i.p. and spontaneous “wet-dog” shakes were counted 10-20 min post-icilin.
A representative compound of the present invention was tested at 10 mg/kg p.o. and 60 min pre-icilin, according to the procedure described above. Results, as listed in Table 8 below, are presented as a percent inhibition of shakes, which was calculated as [1−(test compound WDS count/vehicle WDS count)]×100.

[1] = HEK293 cells stably expressing canine TRPM8, icilin at ~80% maximal response, Table 6, read-out: IC50

SMILES | % Inh @ 0.2 μM (canine TRPM8; Table 6) [%] | other results
CCn1c(=NS(=O)(=O)c2ccccc2)n(Cc2ccc(C(F)(F)F)c(F)c2)c2cc(C(F)(F)F)ccc21 [Compound 37] | – | IC50 (canine TRPM8): 5 nM; inhibition at 0.2 µM (canine TRPM8; Table 6): 93%; % Inhibition of icilin-induced "wet-dog" shakes (Male Sprague Dawley rats): 0.6%
CC(C)n1c(=NS(=O)(=O)c2ccccc2)n(Cc2ccc(OC(F)(F)F)cc2)c2cc(Cl)ccc21 [Compound 45] | 66 | –
Cn1c(=NS(=O)(=O)c2ccccc2)n(Cc2ccc(OC(F)(F)F)cc2)c2cc(F)ccc21 [Compound 46] | 1 | % Inh @ 1 μM (canine TRPM8; re-test, Table 7): 58%
O=S(=O)(N=c1n(Cc2ccc(OC(F)(F)F)cc2)c2ccccc2n1CC1CC1)c1ccccc1 [Compound 48] | 67 | –
O=S(=O)(N=c1n(Cc2ccc(C(F)(F)F)cc2)c2ccccc2n1CC1CC1)c1ccccc1 [Compound 49] | – | inhibition at 0.2 µM (canine TRPM8; Table 6): 71%; IC50 (canine TRPM8; [1]): 110 nM
O=S(=O)(/N=c1\n(Cc2ccc(C(F)(F)F)c(F)c2)c2ccccc2n1CC1CC1)c1ccccc1 [Compound 50, N-[1-Cyclopropylmethyl-3-(3-fluoro-4-trifluoromethyl-benzyl)-1,3-dihydro-benzimidazol-2-ylidene]-benzenesulfonamide] | – | inhibition at 0.2 µM (canine TRPM8; Table 6): 94%; IC50 (canine TRPM8; [1]): 86 nM
O=S(=O)(N=c1n(Cc2ccc(C(F)(F)F)c(F)c2)c2cccc3c2n1CCC3)c1ccccc1 [Compound 51] | 14 | –
O=S(=O)(N=c1n(Cc2ccc(OC(F)(F)F)cc2)c2cccc3c2n1CCC3)c1ccccc1 [Compound 52] | 18 | –
O=S(=O)(N=c1n(Cc2ccc(C(F)(F)F)cc2)c2cccc3c2n1CCC3)c1ccccc1 [Compound 53] | 16 | –
Cc1ccc2c(c1)n(C)c(=NS(=O)(=O)c1ccccc1)n2Cc1ccc(OC(F)(F)F)cc1 [Compound 54] | 6 | % Inh @ 1 μM (canine TRPM8; re-test, Table 7): 55%; IC50 (canine TRPM8; re-test, samples diluted from 10 mM stock with 100% DMSO before addition to assay buffer, Table 7, read-out: IC50): 645 nM
Cc1ccc2c(c1)n(C)/c(=N/S(=O)(=O)c1ccccc1)n2Cc1ccc(C(F)(F)F)c(F)c1 [Compound 55, N-[1-(3-Fluoro-4-trifluoromethyl-benzyl)-3,5-dimethyl-1,3-dihydro-benzimidazol-2-ylidene]-benzene sulfonamide] | – | inhibition at 0.2 µM (canine TRPM8; Table 6): 18%
Cc1ccc2c(c1)n(C)c(=NS(=O)(=O)c1ccccc1)n2Cc1ccc(C(F)(F)F)cc1 [Compound 56] | 1 | % Inh @ 1 μM (canine TRPM8; re-test, Table 7): 40%
Cn1c(=NS(=O)(=O)c2ccccc2)n(Cc2ccc(C(F)(F)F)c(F)c2)c2ccc(C(F)(F)F)cc21 [Compound 57] | 45 | –
Cn1c(=NS(=O)(=O)c2ccccc2)n(Cc2ccc(OC(F)(F)F)cc2)c2ccc(C(F)(F)F)cc21 [Compound 58] | 25 | –
Cn1c(=NS(=O)(=O)c2ccccc2)n(Cc2ccc(C(F)(F)F)cc2)c2ccc(C(F)(F)F)cc21 [Compound 59] | 20 | –
Cc1cc2c(cc1C)n(Cc1ccc(OC(F)(F)F)cc1)c(=NS(=O)(=O)c1ccccc1)n2C [Compound 60] | 5 | % Inh @ 1 μM (canine TRPM8; re-test, Table 7): 48%
Cc1cc2c(cc1C)n(Cc1ccc(C(F)(F)F)c(F)c1)c(=NS(=O)(=O)c1ccccc1)n2C [Compound 61] | 14 | –
Cc1cccc2c1n(Cc1ccc(C(F)(F)F)c(F)c1)c(=NS(=O)(=O)c1ccccc1)n2C [Compound 62] | 19 | –
O=S(=O)(/N=c1\n(Cc2ccc(C(F)(F)F)cc2)c2cccc3c2n1CCO3)c1ccccc1 [Compound 63, N-[1-(4-Trifluoromethyl-benzyl)-3,4-dihydro-1H-5-oxa-1,2a-diaza-acenaphthylen-2-ylidene]-benzenesulfonamide TFA salt] | – | inhibition at 0.2 µM (canine TRPM8; Table 6): 34%
O=S(=O)(N=c1n2c3c(cccc3n1-c1ccc(OC(F)(F)F)cc1)OCC2)c1ccccc1 [Compound 64] | 61 | –
